# Measurements reported in ChEMBL document CHEMBL1201862, “PubChem BioAssay data set” (2004).
# “And” between values parts separate entries of the source, which are not always exact repeats. Equal entries are not always repeated.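 Five concentrations, 48 hours, 96-well plates. The concentration for 50% growth inhibition is given as GI50.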 The source made the active and inactive calls. Rule as the data show it: active = GI50 up to about 1.1 µM and inactive = higher.
# Assays:
# Assay in all cases: NCI anticancer screen, dose series, 48 h
# SK-MEL-5 = system: SK-MEL-5
# SW-620 = system: SW-620
# KM12 = system: KM12
# NCI-H23 = system: NCI-H23
# CCRF-CEM = system: CCRF-CEM
# MDA-MB-231 = system: MDA-MB-231
# K562 = system: K562
# TK-10 = system: TK-10
# HOP-92 = system: HOP-92
# MDA-MB-435 = system: MDA-MB-435
# HL-60 = system: HL-60
# MOLT-4 = system: MOLT-4
# UACC-62 = system: UACC-62
# UACC-257 = system: UACC-257
# MCF7 = system: MCF7
# SK-MEL-28 = system: SK-MEL-28
# SK-MEL-2 = system: SK-MEL-2
# OVCAR-4 = system: OVCAR-4
# SNB-19 = system: SNB-19
# SR = system: SR
# RXF 393 = system: RXF 393
# SNB-75 = system: SNB-75
# UO-31 = system: UO-31
# RPMI-8226 = system: RPMI-8226
# OVCAR-5 = system: OVCAR-5
# 786-0 = system: 786-0
# COLO 205 = system: COLO 205
# SF-295 = system: SF-295
# Malme-3M = system: Malme-3M
# LOX IMVI = system: LOX IMVI
# NCI-H226 = system: NCI-H226
# M14 = system: M14
# SN12C = system: SN12C
# OVCAR-8 = system: OVCAR-8
# NCI-H522 = system: NCI-H522
# SF-268 = system: SF-268
# BT-549 = system: BT-549
# ACHN = system: ACHN
# NCI-H460 = system: NCI-H460
# HT-29 = system: HT-29
# T47D = system: T47D
# HCC 2998 = system: HCC 2998
# A549 = system: A549
# HCT-15 = system: HCT-15
# IGROV-1 = system: IGROV-1
# MDA-N = system: MDA-N
# DU-145 = system: DU-145
# Hs-578T = system: Hs-578T
# OVCAR-3 = system: OVCAR-3
# U-251 = system: U-251
# PC-3 = system: PC-3
# SF-539 = system: SF-539
# EKVX = system: EKVX
# NCI/ADR-RES = system: NCI/ADR-RES
# SK-OV-3 = system: SK-OV-3
# A498 = system: A498
# HCT-116 = system: HCT-116
# CAKI-1 = system: CAKI-1
# HOP-62 = system: HOP-62
smiles,measurement,setting,value
CCOC(=O)c1c(SCCN2CCOCC2)n(-c2ccccc2)c(=S)n(-c2ccccc2)c1=O,GI50,SK-MEL-5,27.7 µM (inactive)
same,GI50,SW-620,21.1 µM (inactive)
same,GI50,KM12,> 100 µM (inactive)
same,GI50,NCI-H23,32.4 µM (inactive)
same,GI50,CCRF-CEM,30.1 µM (inactive)
same,GI50,MDA-MB-231,44 µM (inactive)
same,GI50,K562,19 µM (inactive)
same,GI50,TK-10,> 100 µM (inactive)
same,GI50,HOP-92,51.6 µM (inactive)
same,GI50,MDA-MB-435,47.2 µM (inactive)
same,GI50,HL-60,20.8 µM (inactive)
same,GI50,MOLT-4,26.7 µM (inactive)
same,GI50,UACC-62,49.8 µM (inactive)
same,GI50,UACC-257,25.8 µM (inactive)
same,GI50,MCF7,21.2 µM (inactive)
same,GI50,SK-MEL-28,24 µM (inactive)
same,GI50,SK-MEL-2,> 100 µM (inactive)
same,GI50,OVCAR-4,> 100 µM (inactive)
same,GI50,SNB-19,> 100 µM (inactive)
same,GI50,SR,18.4 µM (inactive)
same,GI50,RXF 393,18.6 µM (inactive)
same,GI50,SNB-75,76.2 µM (inactive)
same,GI50,UO-31,> 100 µM (inactive)
same,GI50,RPMI-8226,33.7 µM (inactive)
same,GI50,OVCAR-5,> 100 µM (inactive)
same,GI50,786-0,21.2 µM (inactive)
same,GI50,COLO 205,> 100 µM (inactive)
same,GI50,SF-295,25.6 µM (inactive)
same,GI50,Malme-3M,> 100 µM (inactive)
same,GI50,LOX IMVI,18.5 µM (inactive)
same,GI50,NCI-H226,38.5 µM (inactive)
same,GI50,M14,44.8 µM (inactive)
same,GI50,SN12C,> 100 µM (inactive)
same,GI50,OVCAR-8,> 100 µM (inactive)
same,GI50,NCI-H522,43.7 µM (inactive)
same,GI50,SF-268,37.4 µM (inactive)
same,GI50,BT-549,39.3 µM (inactive)
same,GI50,ACHN,> 100 µM (inactive)
same,GI50,NCI-H460,> 100 µM (inactive)
same,GI50,HT-29,19.5 µM (inactive)
same,GI50,T47D,31.8 µM (inactive)
same,GI50,HCC 2998,> 100 µM (inactive)
same,GI50,A549,> 100 µM (inactive)
same,GI50,HCT-15,20 µM
same,GI50,IGROV-1,42.5 µM (inactive)
same,GI50,MDA-N,36.5 µM (inactive)
same,GI50,DU-145,> 10 µM (inactive)
same,GI50,Hs-578T,37.8 µM (inactive)
same,GI50,OVCAR-3,49.2 µM (inactive)
same,GI50,U-251,> 100 µM (inactive)
CCCCCCCCCCCCCCCCOP(=O)(O)OP(=O)(O)OCC1OC(n2ccc(N)nc2=O)C(O)C1O (configuration not stated),GI50,SK-MEL-5,> 100 µM (inactive) and 53 µM (inactive)
same,GI50,SW-620,> 100 µM (inactive) and > 95.7 µM (inactive)
same,GI50,PC-3,54.6 µM (inactive)
same,GI50,KM12,> 100 µM (inactive)
same,GI50,MDA-MB-231,> 76.2 µM (inactive)
same,GI50,TK-10,> 100 µM (inactive)
same,GI50,HOP-92,> 100 µM (inactive) and 57.1 µM (inactive)
same,GI50,MDA-MB-435,> 100 µM (inactive)
same,GI50,UACC-257,> 100 µM (inactive) and > 96.6 µM (inactive)
same,GI50,SK-MEL-28,> 100 µM (inactive)
same,GI50,SK-MEL-2,> 100 µM (inactive)
same,GI50,OVCAR-4,> 100 µM (inactive)
same,GI50,RXF 393,58.2 µM (inactive)
same,GI50,RPMI-8226,> 100 µM (inactive)
same,GI50,OVCAR-5,> 100 µM (inactive) and > 61.9 µM (inactive)
same,GI50,SF-539,> 91 µM (inactive)
same,GI50,COLO 205,> 100 µM (inactive)
same,GI50,NCI-H226,89.3 µM (inactive)
same,GI50,SF-268,> 100 µM (inactive)
same,GI50,BT-549,> 93.3 µM (inactive)
same,GI50,EKVX,> 100 µM (inactive)
same,GI50,HT-29,51.3 µM (inactive)
same,GI50,T47D,> 74 µM (inactive)
same,GI50,HCT-15,> 100 µM and 98.2 µM
same,GI50,IGROV-1,> 100 µM (inactive) and > 89.7 µM (inactive)
same,GI50,MDA-N,> 100 µM (inactive)
same,GI50,DU-145,> 100 µM (inactive) and 58.2 µM (inactive)
same,GI50,Hs-578T,> 91.6 µM (inactive)
same,GI50,OVCAR-3,> 100 µM (inactive)
same,GI50,U-251,> 100 µM (inactive) and > 76.7 µM (inactive)
COc1ccc(/C=N/c2ccc(-c3nc4ccccc4s3)cc2)cc1OC,GI50,SK-MEL-5,16.1 µM (inactive)
same,GI50,SW-620,34.8 µM (inactive)
same,GI50,PC-3,22.6 µM (inactive)
same,GI50,KM12,26.4 µM (inactive)
same,GI50,NCI-H23,27.1 µM (inactive)
same,GI50,CCRF-CEM,12.8 µM (inactive)
same,GI50,K562,27.4 µM (inactive)
same,GI50,TK-10,28.6 µM (inactive)
same,GI50,HOP-92,22.4 µM (inactive)
same,GI50,NCI/ADR-RES,27.5 µM (inactive)
same,GI50,SK-OV-3,31 µM (inactive)
same,GI50,MDA-MB-435,33.3 µM (inactive)
same,GI50,HL-60,1.3 µM (inactive)
same,GI50,MOLT-4,17.9 µM (inactive)
same,GI50,A498,18.8 µM (inactive)
same,GI50,UACC-62,20 µM (inactive)
same,GI50,UACC-257,22.7 µM (inactive)
same,GI50,SK-MEL-28,38 µM (inactive)
same,GI50,SK-MEL-2,22 µM (inactive)
same,GI50,OVCAR-4,34.3 µM (inactive)
same,GI50,SNB-19,54.1 µM (inactive)
same,GI50,HCT-116,29.1 µM (inactive)
same,GI50,SR,27.8 µM (inactive)
same,GI50,RXF 393,20.3 µM (inactive)
same,GI50,SNB-75,25.7 µM (inactive)
same,GI50,CAKI-1,31.3 µM (inactive)
same,GI50,UO-31,27.5 µM (inactive)
same,GI50,RPMI-8226,21.7 µM (inactive)
same,GI50,OVCAR-5,36.5 µM (inactive)
same,GI50,SF-539,34.8 µM (inactive)
same,GI50,786-0,19 µM (inactive)
same,GI50,COLO 205,19.3 µM (inactive)
same,GI50,SF-295,25.4 µM (inactive)
same,GI50,Malme-3M,30 µM (inactive)
same,GI50,LOX IMVI,21.8 µM (inactive)
same,GI50,NCI-H226,30.1 µM (inactive)
same,GI50,M14,35.7 µM (inactive)
same,GI50,SN12C,25.7 µM (inactive)
same,GI50,OVCAR-8,36.2 µM (inactive)
same,GI50,NCI-H522,16.7 µM (inactive)
same,GI50,SF-268,28 µM (inactive)
same,GI50,BT-549,30.5 µM (inactive)
same,GI50,ACHN,22.5 µM (inactive)
same,GI50,EKVX,32.9 µM (inactive)
same,GI50,NCI-H460,21.8 µM (inactive)
same,GI50,HT-29,30.7 µM (inactive)
same,GI50,T47D,17.4 µM (inactive)
same,GI50,HCC 2998,20.2 µM (inactive)
same,GI50,A549,36.5 µM (inactive)
same,GI50,HCT-15,31.8 µM
same,GI50,IGROV-1,25.1 µM (inactive)
same,GI50,MDA-N,30.9 µM (inactive)
same,GI50,HOP-62,10.9 µM (inactive)
same,GI50,DU-145,38.3 µM (inactive)
same,GI50,Hs-578T,24.5 µM (inactive)
same,GI50,OVCAR-3,13.4 µM (inactive)
same,GI50,U-251,30.3 µM (inactive)
